According to patent US20140120191A1, “METHOD OF TREATING A DISORDER ASSOCIATED WITH S[…]” (BEECH TREE LABS INC., priority 2011, published 2014):
Entries after “also recorded” stand apart in the source; their conditions may differ.

System: R. equi
Experiment: R. equi intrabronchial challenge model of pneumonia in foals
Format: in vivo
Details: SLO 2 IU subcutaneous twice a day without antibiotics
Method: Animals: 24 foals (average age 4 +/− days old) were used in this challenge model and two additional foals served as uninfected controls. The foals were raised on a Veterinary Science farm and kept with their mares throughout the study. Foals were evaluated shortly after birth for inclusion in the study using the following criteria; normality in physical examination, absence of lung sounds on auscultation, normal temperature, and unremarkable ultrasound examination of the lungs. None of the foals received anti-rhodococcal plasma or other treatments prior to enrollment in the study. The foals were moved with their dams to individual box stalls in a BSL2 isolation facility. Baseline values for heart rate, respiratory rate, temperature, fibrinogen concentration, and leukocyte count were obtained. […]
After the foals were sedated, a flexible fiberoptic endoscope was used to deliver the bacteria suspended in 35 ml of sterile PBS into both main bronchi. […] The foals were returned to their stalls and dams and monitored daily for changes in rectal temperature, respiration, and pulse as determined by physical exam and auscultation of the lungs. […] Clinical signs recorded included lung auscultations, overall attitude, appetite, resting respiratory rate and pulse. […] Daily observation of attitude, appetite, lung auscultation were scored (0-4) and combined to generate an overall daily score for each foal. […]

**Q.** For streptolysin O [SLO alone], which “treatment effect / clinical course” value is on record?
**A.** Its value is “deteriorated rapidly and required early euthanasia; also recorded: no treatment effect”.
